Measurements reported in PubChem BioAssay AID1963866 (Molecular Pharmacology Branch, DTP, NCI, 2024).

Tested on: PDC KRAS tumor spheroids with HUVEC/MSC, viability
Assay: Anticancer human tumor 349418-098-R-PDC patient-derived lung adenocarcinoma cell line growth inhibition [KRAS2]
Conditions: for IC50: curve of first compound; for viability, T/C: stronger effect = lower value
Outline: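 Combination screen of spheroid viability in tumor-cell co-cultures with endothelial (HUVEC) and mesenchymal stem cell stroma. Each agent was tested in half-log dilutions, topping at clinical Cmax or at 10 microM without a known Cmax.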

[1] = second compound 0.1 µM, first compound 0.0316 µM
[2] = second compound 0.1 µM, first compound 0.1 µM
[3] = second compound 0.1 µM, first compound 0.316 µM
[4] = second compound 0.1 µM, first compound 1 µM
[5] = second compound 0.1 µM, first compound 3.16 µM
[6] = second compound 0.1 µM, first compound 10 µM
[7] = second compound 0.316 µM, first compound 0.0316 µM
[8] = second compound 0.316 µM, first compound 0.1 µM
[9] = second compound 0.316 µM, first compound 0.316 µM
[10] = second compound 0.316 µM, first compound 1 µM
[11] = second compound 0.316 µM, first compound 3.16 µM
[12] = second compound 0.316 µM, first compound 10 µM
[13] = second compound 1 µM, first compound 0.0316 µM
[14] = second compound 1 µM, first compound 0.1 µM
[15] = second compound 1 µM, first compound 0.316 µM
[16] = second compound 1 µM, first compound 1 µM
[17] = second compound 1 µM, first compound 3.16 µM
[18] = second compound 1 µM, first compound 10 µM
[19] = second compound 3.16 µM, first compound 0.0316 µM
[20] = second compound 3.16 µM, first compound 0.1 µM
[21] = second compound 3.16 µM, first compound 0.316 µM
[22] = second compound 3.16 µM, first compound 1 µM
[23] = second compound 3.16 µM, first compound 3.16 µM
[24] = second compound 3.16 µM, first compound 10 µM
[25] = second compound 10 µM, first compound 0.0316 µM
[26] = second compound 10 µM, first compound 0.1 µM
[27] = second compound 10 µM, first compound 0.316 µM
[28] = second compound 10 µM, first compound 1 µM
[29] = second compound 10 µM, first compound 3.16 µM
[30] = second compound 10 µM, first compound 10 µM
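Note: spheroids exposed to compounds for seven days before readout.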

Structure (SMILES)	IC50 (second compound 0.1 µM)	IC50 (second compound 0.316 µM)	IC50 (second compound 1 µM)	IC50 (second compound 3.16 µM)	viability, T/C [1]	viability, T/C [2]	viability, T/C [3]	viability, T/C [4]	viability, T/C [5]	viability, T/C [7]	viability, T/C [8]	viability, T/C [9]	viability, T/C [10]	viability, T/C [11]	viability, T/C [13]	viability, T/C [14]	viability, T/C [15]	viability, T/C [16]	viability, T/C [17]	viability, T/C [19]	also measured
COc1cc2nccc(Oc3ccc(NC(=O)C4(C(=O)Nc5ccc(F)cc5)CC4)cc3)c2cc1OC + C=CC(=O)N1CCN(c2nc(OCC3CCCN3C)nc3c2CCN(c2cccc4cccc(C)c24)C3)CC1CC#N	1570 nM	1530 nM	588 nM	< 31.6 nM	88.5%	95.8%	93.7%	74.6%	7.5%	93.2%	88.6%	85.3%	72.8%	7.47%	73.5%	79.7%	68.4%	33.7%	1.78%	0.14%	IC50 (second compound 0.0316 µM): 1560 nM; viability, T/C (second compound 0.0316 µM, first compound 0.0316 µM): 96.3%; viability, T/C (second compound 0.0316 µM, first compound 0.1 µM): 96.9%; viability, T/C (second compound 0.0316 µM, first compound 0.316 µM): 92.2%; viability, T/C (second compound 0.0316 µM, first compound 1 µM): 72.5%; viability, T/C (second compound 0.0316 µM, first compound 3.16 µM): 10.1%; viability, T/C (second compound 0.0316 µM, first compound 10 µM): 19.4%; viability, T/C [6]: 15.7%; viability, T/C [12]: 15.3%; viability, T/C [18]: 0.85%; viability, T/C [20]: 0.28%; viability, T/C [21]: 0.29%; viability, T/C [22]: 0.22%; viability, T/C [23]: 0.19%; viability, T/C [24]: 0.14%
CC1COCCN1c1cc(-c2ccnn2C)c2ccnc(-c3ccn[nH]3)c2n1 (stereo not given) + COc1cc2nc(C)nc(NC(C)c3cc(N)cc(C(F)(F)F)c3)c2cc1OC1CCOC1	< 10 nM	43.8 nM	48.5 nM	42.7 nM	8.3%	5.7%	5.49%	6%	5.72%	65.5%	10.9%	6.49%	5.47%	7.16%	71.2%	13.9%	11.7%	7.84%	7.72%	63.1%	IC50 (second compound 10 µM): < 10 nM; viability, T/C (second compound 0.1 µM, first compound 0.01 µM): 5.36%; viability, T/C (second compound 0.316 µM, first compound 0.01 µM): 170%; viability, T/C (second compound 1 µM, first compound 0.01 µM): 167%; viability, T/C (second compound 3.16 µM, first compound 0.01 µM): 146%; viability, T/C [20]: 12.8%; viability, T/C [21]: 7.88%; viability, T/C [22]: 6.55%; viability, T/C [23]: 9.36%; viability, T/C (second compound 10 µM, first compound 0.01 µM): 36.6%; viability, T/C [25]: 14.1%; viability, T/C [26]: 8.5%; viability, T/C [27]: 6.86%; viability, T/C [28]: 7.4%; viability, T/C [29]: 5.53%
CCNC(=O)CC1N=C(c2ccc(Cl)cc2)c2cc(OC)ccc2-n2c(C)nnc21 (stereo not given) + CC1OCC2(CCN(c3cnc(Sc4ccnc(N)c4Cl)c(N)n3)CC2)C1N	112 nM	133 nM	148 nM	183 nM	106%	50.3%	28.4%	11.3%	3.22%	103%	58.8%	23.6%	10.1%	2.91%	136%	60.9%	28.8%	8.35%	2.56%	103%	IC50 (second compound 10 µM): 196 nM; viability, T/C [6]: 1.09%; viability, T/C [12]: 1.3%; viability, T/C [18]: 1.67%; viability, T/C [20]: 73.9%; viability, T/C [21]: 27.6%; viability, T/C [22]: 10.3%; viability, T/C [23]: 2.56%; viability, T/C [24]: 1.16%; viability, T/C [25]: 109%; viability, T/C [26]: 80%; viability, T/C [27]: 28.3%; viability, T/C [28]: 7.82%; viability, T/C [29]: 2.1%; viability, T/C [30]: 0.96%
CC1(C)CCC(CN2CCN(c3ccc(C(=O)NS(=O)(=O)c4ccc(NCC5CCOCC5)c([N+](=O)[O-])c4)c(Oc4cnc5[nH]ccc5c4)c3)CC2)=C(c2ccc(Cl)cc2)C1 + COc1cc2nc(C)nc(NC(C)c3cc(N)cc(C(F)(F)F)c3)c2cc1OC1CCOC1	1770 nM	1860 nM	1760 nM	1560 nM	104%	103%	105%	85.1%	14%	104%	97.9%	95.3%	90.6%	15.3%	102%	94.2%	95.7%	86.1%	12.8%	78.9%	IC50 (second compound 10 µM): < 31.6 nM; viability, T/C [6]: 5.48%; viability, T/C [12]: 4.54%; viability, T/C [18]: 3.87%; viability, T/C [20]: 93.9%; viability, T/C [21]: 86%; viability, T/C [22]: 75.1%; viability, T/C [23]: 10.2%; viability, T/C [24]: 5.85%; viability, T/C [25]: 35.2%; viability, T/C [26]: 32.9%; viability, T/C [27]: 32.3%; viability, T/C [28]: 21.9%; viability, T/C [29]: 4.35%; viability, T/C [30]: 2.8%
